From patent US12649748B2, “Wee1 inhibitor and use thereof” (JIANGSU TASLY DIYI PHARMACEUTICAL CO., LTD., priority 2021, dated 2026)
Where two headings read alike, the source gives them in different places.

What was measured:
Wee1 protein = target: T1, Wee1 protein (Homo sapiens, UniProt P30291); assay: Binding of compound to Wee1 protein and Tracer 178 by TR-FRET; conditions: inhibitory activity against Wee1 kinase, read-out: IC50 measured value
T1 construct: purchased Thermo Fisher PR7373A
Procedure: First, solutions of the compounds in different concentration gradients were prepared. […] DMSO was added as a positive control (maximal signal control) and a negative control (minimal signal control) and a final level of 0.25% DMSO was ensured in each reaction well.
WEE1 (Thermo Fisher, Cat #PR7373A) protein in buffer (50 mM Hepes pH 7.5, 10 mM MgCl2, 1 mM EGTA, 0.01% Brij-35) at 15 nM) in different concentrations of compound, and Tracer 178 (Invitrogen, PV5593) and MAb Anti-GST-Eu crypate (Cisbio, 61GSTKLA) were added to 384-well plates (Corning, cat #3574), centrifuged at 1000 rpm for 1 min and the 384-well plates were incubated in a constant temperature shaker for 60 min at 25° C. and 300 rpm. Tracer 178 and MAb Anti-GST-Eu crypate were prepared in buffer (50 mM HEPES pH 7.5, 10 mM MgCl2, 1 mM EGTA, 0.01% Brij-35) with a final reaction concentration of 50 nM for Tracer 178 and a final concentration of 2 nM for MAb Anti-GST-Eu crypate, where the negative control (minimal signal control) used an equal amount of buffer in place of the protein solution.
After incubation, readings were performed using BMG PHERAStar (excitation light at 337 nm and emission light at wavelength values of 620 nm and 665 nm to read the fluorescence signal values). […] The IC50 for inhibition of enzyme activity by the compounds was then calculated using GraphPad Prism 6 and fitted with a log (inhibitor) vs. response-Variable slope mode. The fitting equation was: Y=Bottom+(Top-Bottom)/(1+10^((Log IC50−X)*HillSlope)), where Y represents the percentage of residual enzyme activity known and X represents the known concentration of compound after the logarithm.

H1299 cells = assay: Anti-proliferative effect by Cell Titer-Glo, H1299; type: cell-based; conditions: Homo sapiens, NCI-H1299, 72 h, read-out: IC50 measured value H1299
Procedure: (§1) Compound solutions of different concentration gradients were prepared. DMSO was dissolved to a concentration of 10 mM test compound and 10 mM reference compound AZD1775, and the compounds were serially diluted in culture medium for a total of 9 dose points, with 2 parallel replicates set at each concentration. The cell growth group without compound was used as a positive control (maximum signal control) and the medium was used as a negative control (minimum signal control), while ensuring that the final level of DMSO in each reaction well was 0.2%. After removing the medium from the 384-well plate, 25 ul of the configured compound at different concentrations was transferred into the well plate and the compound and cells were incubated in the cell incubator at 37° C. with 5% CO2 for 3 days.
(§2) The 384-well plates were removed from the cell incubator and allowed to equilibrate for 1 h to room temperature. 25 ul of Cell Titer-Glo assay was added to each well, lysed on a shaker for 2 min and then read out (Luminescence) using a BMG PHERAStar after 10 min incubation. Calculate the inhibition rate from the luminescence signal: first calculate the average of the positive control (maximum signal control) and the negative control (minimum signal control).
(§3) [formula] to calculate the rate of inhibition of the cells by different concentrations of the compounds. The IC50 of the compound on cell activity inhibition was calculated by fitting a log(inhibitor) vs. response-Variable slope model to GraphPad Prism 6. The fitted equation was: Y=Bottom+(Top−Bottom)/(1+10^((Log IC50−X)*HillSlope)), where Y represents the rate of inhibition and X represents the concentration of the known compound after Log.

MIA Paca-2 cells = assay: Anti-proliferative effect by Cell Titer-Glo, MIA Paca-2; type: cell-based; conditions: Homo sapiens, read-out: IC50 measured value MIA Paca-2
Procedure: as §1, §2, §3

[1] = H1299 cells, 3 days, Cell Titer-Glo
[2] = 72 h, MIA Paca-2 cells, 3 days, Cell Titer-Glo

T1 sequence (P30291 whole entry): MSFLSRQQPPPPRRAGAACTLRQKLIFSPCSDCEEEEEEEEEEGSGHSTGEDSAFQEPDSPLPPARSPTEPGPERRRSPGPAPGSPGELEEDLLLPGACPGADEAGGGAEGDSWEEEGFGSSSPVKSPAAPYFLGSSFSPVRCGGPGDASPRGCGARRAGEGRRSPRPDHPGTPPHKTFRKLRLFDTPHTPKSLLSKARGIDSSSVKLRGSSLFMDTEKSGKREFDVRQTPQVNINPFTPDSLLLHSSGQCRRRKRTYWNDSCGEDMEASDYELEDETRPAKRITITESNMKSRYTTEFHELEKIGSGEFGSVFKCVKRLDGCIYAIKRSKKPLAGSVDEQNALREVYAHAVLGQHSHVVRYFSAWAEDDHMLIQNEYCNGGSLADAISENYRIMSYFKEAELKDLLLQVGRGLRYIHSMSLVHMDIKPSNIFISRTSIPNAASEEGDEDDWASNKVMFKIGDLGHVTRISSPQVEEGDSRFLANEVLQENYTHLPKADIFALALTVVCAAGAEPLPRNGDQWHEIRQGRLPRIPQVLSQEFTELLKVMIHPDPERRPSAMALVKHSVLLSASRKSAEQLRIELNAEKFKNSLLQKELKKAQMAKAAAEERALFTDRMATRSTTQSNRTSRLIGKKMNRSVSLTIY

| SMILES | IC50 (Wee1 protein) [µM] | IC50 (H1299 cells; [1]) [µM] | IC50 (H1299 cells) [µM] | IC50 (MIA Paca-2 cells; [2]) [µM] | IC50 (MIA Paca-2 cells; MIA PaCa-2, 72 h) [µM] |
| --- | --- | --- | --- | --- | --- |
| CN1CCN(c2ccc(Nc3ncc4cnn(-c5cccc(C(C)(O)C(F)(F)F)n5)c4n3)cc2)CC1 (centres unmarked) [Compound 4] | 0.01 to 0.1 | 1 to 5 | – | – | – |
| CN1CCN(c2ccc(Nc3ncc4cnn(-c5cccc(C6(S(C)(=O)=O)CC6)n5)c4n3)cc2)CC1 [Compound 5] | 0.01 to 0.1 | – | 1 to 5 | – | – |
| CS(C)(=O)=Nc1cccc(-n2ncc3cnc(Nc4ccc5c(c4)CNCC5)nc32)n1 [Compound 7] | 0.001 to 0.01 | 1 to 5 | – | – | – |
| CN1CCc2ccc(Nc3ncc4cnn(-c5cccc(N=S(C)(C)=O)n5)c4n3)cc2C1 [Compound 8] | 0.001 to 0.01 | 1 to 5 | – | – | – |
| CN(C)C1CCN(c2ccc(Nc3ncc4cnn(-c5cccc(N=S(C)(C)=O)n5)c4n3)cc2)CC1 [Compound 9] | 0.001 to 0.01 | – | 1 to 5 | – | – |
| CN1CCN(c2ccc(Nc3ncc4cnn(-c5cccc(C(C)(C)O)c5)c4n3)cc2)CC1 [Compound 12] | 0.01 to 0.1 | 0.1 to 1 | – | – | – |
| CN1CC2CC1CN2c1ccc(Nc2ncc3cnn(-c4cccc(N=S(C)(C)=O)n4)c3n2)cc1 (centres unmarked) [Compound 13] | 0.001 to 0.01 | 5 to 20 | – | – | – |
| CS(C)(=O)=Nc1cccc(-n2ncc3cnc(Nc4ccc(CC5C(=O)C6CCN5CC6)cc4)nc32)n1 (centres unmarked) [Compound 15] | 0.01 to 0.1 | 1 to 5 | – | 0.1 to 1 | – |
| CN1CCN(c2c(Cl)cc(Nc3ncc4cnn(-c5cccc(N=S(C)(C)=O)n5)c4n3)cc2Cl)CC1 [Compound 17] | 0.01 to 0.1 | 5 to 20 | – | 0.1 to 1 | – |
| CN1CCN(c2ccc(Nc3ncc4cnn(-c5cccc(N=S(C)(C)=O)n5)c4n3)cc2F)CC1 [Compound 19] | 0.01 to 0.1 | 1 to 5 | – | 0.1 to 1 | – |
| CN1CCN(C2CCN(c3ccc(Nc4ncc5cnn(-c6cccc(N=S(C)(C)=O)n6)c5n4)cc3)CC2)CC1 [Compound 20] | 0.001 to 0.01 | 1 to 5 | – | 0.1 to 1 | – |
| Cc1cc(Nc2ncc3cnn(-c4cccc(C(C)(C)O)n4)c3n2)ccc1N1CCN(C)CC1 [Compound 21] | 0.01 to 0.1 | 1 to 5 | – | 0.1 to 1 | – |
| COc1cc(N2CCN(C)CC2)ccc1Nc1ncc2cnn(-c3cccc(N=S(C)(C)=O)n3)c2n1 [Compound 22] | 0.1 to 1 | 5 to 20 | – | 5 to 20 | – |
| CN1CCN(c2ccc(Nc3ncc4cnn(-c5cccc(N=S(C)(C)=O)n5)c4n3)cc2CO)CC1 [Compound 23] | 0.001 to 0.01 | 0.1 to 1 | – | 0.1 to 1 | – |
| CN1CCN(c2ccc(Nc3ncc4c(C(F)(F)F)nn(-c5cccc(N=S(C)(C)=O)n5)c4n3)cc2)CC1 [Compound 24] | 0.01 to 0.1 | – | 1 to 5 | – | 1 to 5 |
| CN1CCC2(CC1)CCN(c1ccc(Nc3ncc4cnn(-c5cccc(N=S(C)(C)=O)n5)c4n3)cc1)CC2 [Compound 25] | 0.001 to 0.01 | 0.1 to 1 | – | 0.1 to 1 | – |
| COc1cc(Nc2ncc3cnn(-c4cccc(N=S(C)(C)=O)n4)c3n2)ccc1N1CCN(C)CC1 [Compound 26] | 0.001 to 0.01 | 1 to 5 | – | 0.1 to 1 | – |
| CN1CCN(c2ccc(Nc3ncc4c(=O)n(C)n(-c5cccc(N=S(C)(C)=O)n5)c4n3)cc2)CC1 [Compound 27A] | 0.001 to 0.01 | 0.1 to 1 | – | 0.1 to 1 | – |

| SMILES | IC50 (Wee1 protein) [µM] | IC50 (H1299 cells; [1]) [µM] | IC50 (H1299 cells) [µM] | IC50 (MIA Paca-2 cells; [2]) [µM] | IC50 (MIA Paca-2 cells; MIA PaCa-2, 72 h) [µM] |
| --- | --- | --- | --- | --- | --- |
| COc1nn(-c2cccc(N=S(C)(C)=O)n2)c2nc(Nc3ccc(N4CCN(C)CC4)cc3)ncc12 [Compound 27B] | 0.01 to 0.1 | 1 to 5 | – | 0.1 to 1 | – |
| CN1CCN(c2ccc(Nc3ncc4cnn(-c5ccnc(C(C)(C)O)c5)c4n3)cc2)CC1 [Compound 29] | 0.1 to 1 | 0.1 to 1 | – | 0.1 to 1 | – |
| CN1CCN(c2ccc(Nc3ncc4cnn(-c5cccc(N=S(C)(C)=O)c5)c4n3)cc2)CC1 [Compound 30] | 0.01 to 0.1 | – | 1 to 5 | – | 0.1 to 1 |
| CN1CCN(c2ccc(Nc3ncc4cnn(-c5cncc(N=S(C)(C)=O)c5)c4n3)cc2)CC1 [Compound 31] | 0.01 to 0.1 | 1 to 5 | – | 0.1 to 1 | – |
| CN1CCN(c2ccc(Nc3ncc4cnn(-c5cncc(C(C)(C)O)c5)c4n3)cc2)CC1 [Compound 32] | 0.1 to 1 | 0.1 to 1 | – | 0.1 to 1 | – |
| CN1CCN(c2ccc(Nc3ncc4cnn(-c5cccc(N=S(C)(C)=O)c5F)c4n3)cc2)CC1 [Compound 33] | 0.1 to 1 | 1 to 5 | – | 1 to 5 | – |
| CN1CCN(c2ccc(Nc3ncc4cnn(-c5cc(C(C)(C)O)ccn5)c4n3)cc2)CC1 [Compound 34] | 0.1 to 1 | 0.1 to 1 | – | 0.1 to 1 | – |
| CN1CCN(c2ccc(Nc3ncc4c(C(F)(F)F)nn(-c5cccc(C(C)(C)O)c5)c4n3)cc2)CC1 [Compound 35] | 0.1 to 1 | 5 to 20 | – | 5 to 20 | – |
| CN1CCN(c2ccc(Nc3ncc4cnn(-c5ccc6ccncc6c5)c4n3)cc2)CC1 [Compound 36] | 0.01 to 0.1 | 1 to 5 | – | 1 to 5 | – |
| CN1CCN(c2ccc(Nc3ncc4cnn(-c5ccc6scnc6c5)c4n3)cc2)CC1 [Compound 37] | 0.01 to 0.1 | 0.1 to 1 | – | 0.1 to 1 | – |
| CN1CCN(c2ccc(Nc3ncc4cnn(-c5ccc6c(c5)C(=O)NCC6)c4n3)cc2)CC1 [Compound 38] | 0.01 to 0.1 | 0.1 to 1 | – | 0.1 to 1 | – |
| CN1CCN(c2ccc(Nc3ncc4cnn(-c5ccc6c(c5)C(O)CO6)c4n3)cc2)CC1 (centres unmarked) [Compound 39] | 0.01 to 0.1 | 1 to 5 | – | 0.1 to 1 | – |
| CN1CCN(c2ccc(Nc3ncc4cnn(-c5ccc6cc[nH]c6c5)c4n3)cc2)CC1 [Compound 41] | 0.01 to 0.1 | 1 to 5 | – | 1 to 5 | – |
| CN1CCN(c2ccc(Nc3ncc4cnn(-c5ccc(F)c(C(C)(C)O)c5)c4n3)cc2)CC1 [Compound 42] | 0.01 to 0.1 | 0.1 to 1 | – | 0.1 to 1 | – |
| CN1CCN(c2ccc(Nc3ncc4cnn(-c5cccc6c5CCC6(C)O)c4n3)cc2)CC1 (centres unmarked) [Compound 44] | 0.1 to 1 | 0.1 to 1 | – | 0.1 to 1 | – |
| CN1CCN(c2ccc(Nc3ncc4cnn(-c5ccc6c(c5)C(=O)NC6)c4n3)cc2)CC1 [Compound 46] | 0.01 to 0.1 | 1 to 5 | – | 0.1 to 1 | – |
| CN1CCN(c2ccc(Nc3ncc4cnn(-c5cccc(C(C)(C)O)c5)c4n3)cn2)CC1 [Compound 47] | 0.1 to 1 | 0.1 to 1 | – | 0.1 to 1 | – |
